Measured values: the NIST ThermoML archive (doi:10.1021/je901020a)

What was measured:
[1] = xn = mol fraction of the nth substance listed; settings: 101 kPa, Liquid; for speed of sound: Pulse-echo method
[2] = refractive index (Na D-line) (dimensionless); xn = mol fraction of the nth substance listed; settings: 101 kPa, Liquid, Standard Abbe refractometry

Cc1ccccc1C [1,2-dimethylbenzene] + C1CCCC1
x2 = 0
Settings | mass density, [1] [kg/m3] | refractive index, [2] | speed of sound, [1] [m/s]
298.15 K | 875.4 | 1.50262 | 1350
313.15 K | 862.9 | 1.49466 | 1290

Cc1ccccc1C [1,2-dimethylbenzene] + C1CCCCC1
Settings | mass density, [1] [kg/m3] | refractive index, [2] | speed of sound, [1] [m/s]
298.15 K, x2 = 0 | 875.4 | 1.50262 | 1350
298.15 K, x2 = 0.0471 | 870.8 | 1.49895 | 1343
298.15 K, x2 = 0.0981 | 865.5 | 1.49488 | 1336
298.15 K, x2 = 0.1961 | 855.2 | 1.48705 | 1323
298.15 K, x2 = 0.2986 | 844.5 | 1.47886 | 1310
298.15 K, x2 = 0.3979 | 834 | 1.47092 | 1298
298.15 K, x2 = 0.4964 | 823.8 | 1.46293 | 1288
298.15 K, x2 = 0.5975 | 813.5 | 1.45493 | 1278
298.15 K, x2 = 0.6978 | 803.2 | 1.44691 | 1269
298.15 K, x2 = 0.796 | 793.4 | 1.43924 | 1263
298.15 K, x2 = 0.8995 | 783.4 | 1.43126 | 1257
298.15 K, x2 = 0.9512 | 778.6 | 1.42739 | 1255
313.15 K, x2 = 0 | 862.9 | 1.49466 | 1289
313.15 K, x2 = 0.0528 | 857.4 | 1.49053 | 1282
313.15 K, x2 = 0.0977 | 852.7 | 1.48716 | 1275
313.15 K, x2 = 0.1958 | 842.3 | 1.47934 | 1261
313.15 K, x2 = 0.2169 | 840 | 1.47754 | 1258
313.15 K, x2 = 0.4011 | 820.4 | 1.46285 | 1234
313.15 K, x2 = 0.4999 | 809.9 | 1.45473 | 1222
313.15 K, x2 = 0.5976 | 799.6 | 1.44694 | 1211
313.15 K, x2 = 0.6971 | 789.4 | 1.43921 | 1201
313.15 K, x2 = 0.7994 | 779 | 1.43094 | 1193
313.15 K, x2 = 0.8995 | 769.1 | 1.42311 | 1186
313.15 K, x2 = 0.9484 | 764.5 | 1.41926 | 1183

Cc1ccccc1C [1,2-dimethylbenzene] + C1CCCCCCC1
x2 = 0
Settings | mass density, [1] [kg/m3] | refractive index, [2] | speed of sound, [1] [m/s]
298.15 K | 875.4 | 1.50262 | 1350
313.15 K | 862.9 | 1.49466 | 1289

Cc1ccccc1C [1,2-dimethylbenzene] + CC1CCCCC1
x2 = 0
Settings | mass density, [1] [kg/m3] | refractive index, [2] | speed of sound, [1] [m/s]
298.15 K | 875.4 | 1.50262 | 1350
313.15 K | 862.9 | 1.49466 | 1289

Cc1cc(C)cc(C)c1 [1,3,5-trimethylbenzene] + C1CCCC1
x2 = 0
Settings | mass density, [1] [kg/m3] | refractive index, [2] | speed of sound, [1] [m/s]
298.15 K | 861.1 | 1.49693 | 1336
313.15 K | 848.8 | 1.48923 | 1277

Cc1cc(C)cc(C)c1 [1,3,5-trimethylbenzene] + C1CCCCC1
Settings | mass density, [1] [kg/m3] | refractive index, [2] | speed of sound, [1] [m/s]
298.15 K, x2 = 0 | 861.1 | 1.49693 | 1336
298.15 K, x2 = 0.0459 | 857.3 | 1.4939 | 1331
298.15 K, x2 = 0.0956 | 853.1 | 1.49061 | 1326
298.15 K, x2 = 0.193 | 844.8 | 1.48396 | 1315
298.15 K, x2 = 0.2937 | 835.9 | 1.47698 | 1304
298.15 K, x2 = 0.3878 | 827.5 | 1.46995 | 1294
298.15 K, x2 = 0.4953 | 817.9 | 1.46201 | 1283
298.15 K, x2 = 0.598 | 808.6 | 1.45441 | 1274
298.15 K, x2 = 0.6944 | 799.7 | 1.44675 | 1265
298.15 K, x2 = 0.796 | 790.3 | 1.43896 | 1258
298.15 K, x2 = 0.8942 | 781.5 | 1.43119 | 1252
298.15 K, x2 = 0.9515 | 776.9 | 1.42697 | 1250
313.15 K, x2 = 0 | 848.8 | 1.48923 | 1277
313.15 K, x2 = 0.0488 | 844.8 | 1.48628 | 1271
313.15 K, x2 = 0.102 | 840.2 | 1.48264 | 1265
313.15 K, x2 = 0.2008 | 831.7 | 1.47604 | 1253
313.15 K, x2 = 0.3053 | 822.6 | 1.4688 | 1241
313.15 K, x2 = 0.416 | 812.4 | 1.46071 | 1229
313.15 K, x2 = 0.5105 | 803.5 | 1.4534 | 1219
313.15 K, x2 = 0.6084 | 794.3 | 1.44576 | 1209
313.15 K, x2 = 0.7068 | 785.2 | 1.43825 | 1200
313.15 K, x2 = 0.8092 | 775.9 | 1.43012 | 1191
313.15 K, x2 = 0.911 | 766.9 | 1.4222 | 1185
313.15 K, x2 = 0.9612 | 762.7 | 1.41833 | 1183

Cc1cc(C)cc(C)c1 [1,3,5-trimethylbenzene] + C1CCCCCCC1
x2 = 0
Settings | mass density, [1] [kg/m3] | refractive index, [2] | speed of sound, [1] [m/s]
298.15 K | 861.1 | 1.49693 | 1336
313.15 K | 848.8 | 1.48923 | 1277
